Test results reported in patent US20130005747A1, “METHOD FOR SELECTING A CANCER THERAPY” (Cyclacel Limited, priority 2010, published 2013).

Assays:
Assay in all cases: Fractional growth, 72 h seliciclib
Format in all cases: cell-based, human
[1] = test system: HCC-366; conditions: HCC-366 (Lung: NSCLC), 15 μM seliciclib
Text: (§1) A total of 270 human cancer cell lines from diverse cancer histopathologic types were investigated.

[2] = test system: SN-12C; conditions: SN-12C (Kidney), 15 μM seliciclib
Text: as §1

[3] = test system: NAE; conditions: NAE (Skin), 15 μM seliciclib
Text: as §1

[4] = test system: PA-TU-8902; conditions: PA-TU-8902 (Pancreas), 15 μM seliciclib
Text: as §1

[5] = test system: RCM-1; conditions: RCM-1 (Intestine), 15 μM seliciclib
Text: as §1

[6] = test system: T24; conditions: T24 (Bladder), 15 μM seliciclib
Text: as §1

[7] = test system: C-4 II; conditions: C-4 II (Cervix), 15 μM seliciclib
Text: as §1

[8] = test system: NCI-H1975; conditions: NCI-H1975 (Lung: NSCLC), 15 μM seliciclib
Text: as §1

[9] = test system: COLO-680N; conditions: COLO-680N (Esophagus), 15 μM seliciclib
Text: as §1

[10] = test system: SW 156; conditions: SW 156 (Kidney), 15 μM seliciclib
Text: as §1

[11] = test system: A-375; conditions: A-375 (Skin), 15 μM seliciclib
Text: as §1

[12] = test system: SW 1573; conditions: SW 1573 (Lung: NSCLC), 15 μM seliciclib
Text: as §1

[13] = test system: UO-31; conditions: UO-31 (Kidney), 15 μM seliciclib
Text: as §1

[14] = test system: HCT-15; conditions: HCT-15 (Intestine), 15 μM seliciclib
Text: as §1

[15] = test system: HCC1395; conditions: HCC1395 (Breast), 15 μM seliciclib
Text: as §1

[16] = test system: SK-N-MC; conditions: SK-N-MC (Brain), 15 μM seliciclib
Text: as §1

[17] = test system: PFSK-1; conditions: PFSK-1 (Brain), 15 μM seliciclib
Text: as §1

[18] = test system: SW 900; conditions: SW 900 (Lung: NSCLC), 15 μM seliciclib
Text: as §1

[19] = test system: COLO 320DM; conditions: COLO 320DM (Intestine), 15 μM seliciclib
Text: as §1

[20] = test system: WM-115; conditions: WM-115 (Skin), 15 μM seliciclib
Text: as §1

[21] = test system: 5637; conditions: 5637 (Bladder), 15 μM seliciclib
Text: as §1

[22] = test system: PCI-15A; conditions: PCI-15A (Head & Neck), 15 μM seliciclib
Text: as §1

[23] = test system: 639-V; conditions: 639-V (Bladder), 15 μM seliciclib
Text: as §1

[24] = test system: PC-3; conditions: PC-3 (Prostate), 15 μM seliciclib
Text: as §1

[25] = test system: JHU-028EP; conditions: JHU-028EP (Head & Neck), 15 μM seliciclib
Text: as §1

[26] = test system: PL4; conditions: PL4 (Pancreas), 15 μM seliciclib
Text: as §1

[27] = test system: MES-SA; conditions: MES-SA (Uterus), 15 μM seliciclib
Text: as §1

[28] = test system: PC-14; conditions: PC-14 (Lung: NSCLC), 15 μM seliciclib
Text: as §1

[29] = test system: ESS-1; conditions: ESS-1 (Uterus), 15 μM seliciclib
Text: as §1

[30] = test system: RT4; conditions: RT4 (Bladder), 15 μM seliciclib
Text: as §1

[31] = test system: HSC-3; conditions: HSC-3 (Head & Neck), 15 μM seliciclib
Text: as §1

[32] = test system: RT112/84; conditions: RT112/84 (Bladder), 15 μM seliciclib
Text: as §1

[33] = test system: KYSE-450; conditions: KYSE-450 (Esophagus), 15 μM seliciclib
Text: as §1

[34] = test system: WM 266-4; conditions: WM 266-4 (Skin), 15 μM seliciclib
Text: as §1

[35] = test system: RERF-LC-Sq1; conditions: RERF-LC-Sq1 (Lung: NSCLC), 15 μM seliciclib
Text: as §1

[36] = test system: CHSA8926; conditions: CHSA8926 (Bone), 15 μM seliciclib
Text: as §1

[37] = test system: LU99B; conditions: LU99B (Lung: NSCLC), 15 μM seliciclib
Text: as §1

## CC[C@H](CO)Nc1nc(NCc2ccccc2)c2ncn(C(C)C)c2n1 [seliciclib, roscovitine]
[1]
  Fractional Growth: 0.2561
[2]
  Fractional Growth: 0.6383
[3]
  Fractional Growth: 0.3413
[4]
  Fractional Growth: 0.5577
[5]
  Fractional Growth: 0.6689
[6]
  Fractional Growth: 0.5262
[7]
  Fractional Growth: 0.7489
[8]
  Fractional Growth: 0.4117
[9]
  Fractional Growth: 0.6838
[10]
  Fractional Growth: 0.467
[11]
  Fractional Growth: 0.1771
[12]
  Fractional Growth: 0.6076
[13]
  Fractional Growth: 0.3152
[14]
  Fractional Growth: 0.5363
[15]
  Fractional Growth: 0.6999
[16]
  Fractional Growth: 0.283
[17]
  Fractional Growth: 0.249
[18]
  Fractional Growth: 0.5842
[19]
  Fractional Growth: 0.3188
[20]
  Fractional Growth: 0.5068
[21]
  Fractional Growth: 0.6151
[22]
  Fractional Growth: 0.4965
[23]
  Fractional Growth: 0.4196
[24]
  Fractional Growth: 0.4021
[25]
  Fractional Growth: 0.3716
[26]
  Fractional Growth: 0.057
[27]
  Fractional Growth: 0.3922
[28]
  Fractional Growth: 0.5776
[29]
  Fractional Growth: 0.4399
[30]
  Fractional Growth: 0.9342
[31]
  Fractional Growth: 0.5223
[32]
  Fractional Growth: 0.318
[33]
  Fractional Growth: 0.4067
[34]
  Fractional Growth: 0.4972
[35]
  Fractional Growth: 0.6428
[36]
  Fractional Growth: 0.674
[37]
  Fractional Growth: 0.2318
